The text below walks through data of patent US7799809B2, “Carboxamide compounds and their use as calpain inhibitors” (Abbott GmbH & Co. KG, priority 2006, dated 2010).

Assay type in all cases: biochemical
One test concerns the target T1, cathepsin B (Homo sapiens, UniProt P07858).
T1 construct: cathepsin B—isolated from human liver (Calbiochem #219362); purchased Calbiochem 219362; host or cells: human liver (tissue-derived)
As to the kind of experiment: Cathepsin B enzyme inhibition in vitro (kinetic fluorescence assay). The note with it: cathepsin B isolated from human liver vs calpain I. As to the method: (§1) The following solutions and buffers were employed: • HBS (for 40 ml): 800 μl M HEPES; 2.16 ml 100 mM KCl; 4.8 ml 1M NaCl; 3.59 ml 5% glucose; 60 μl μM MgSO4; 400 μl 100 mM Na pyruvate, 28.19 ml water; pH 7.2-7.5. • lysis buffer (for 20 ml): 400 μl M Tris pH 8.2; 2.74 ml 1M NaCl; 520 μl 0.5M EDTA; 2 ml 10% triton X-100; 0.8 ml (=1:25) CompletePlus (1 tablet/2 ml H2O); 200 μl 100 mM Pefabloc; 13.34 ml water, pH 8.2. • TBST (10×) (for 1 l): 100 mM Tris (12.1 g); 1.5M NaCl (87 g); 1% Tween 20 (10 g), adjusted to pH 8. I Enzyme Inhibition In Vitro: • Testing for blockade of the corresponding enzymic activities was carried out by means of kinetic fluorescence assays (excitation 390 nm, emission 460 nm). • Apparent Ki values were calculated from the experimentally determined IC50 values by the Cheng-Prussoff relation assuming a reversible competitive enzyme inhibition. The Km values of the substrates used under the assay conditions indicated above were: 90 μM (Z-Phe-Arg-AMC, cathepsin B), 10 μM (Z-Gly-Pro-Arg-AMC, cathepsin K), 2 μM (Z-Phe-Arg-AMC, cathepsin L), and 30 μM (Z-Val-Val-Arg-AMC, cathepsin S). • The indicated Ki values are averages of the inhibition constants calculated on the basis of 2 to 4 independent dose-effect plots.
(§2) The following assays were used: • 1. Calpain I: • 20 nM calpain-I—isolated from human erythrocytes (Calbiochem #208713), 100 μM Suc-Leu-Tyr-AMC (Bachem #1-1355) as substrate in buffer with 62 mM imidazole, 0.3 mM CaCl2, 0.10% CHAPS, 0.05% BSA, 1 mM DTT at pH 7.3 and room temperature. • 2. Cathepsin B: • 0.25 nM cathepsin B—isolated from human liver (Calbiochem #219362), 100 μM Z-Phe-Arg-AMC (Bachem #I-1160) as substrate 50 mM MES, 2 mM EDTA, 0.05% Brij 35, 2.5 mM L-cysteine, pH 6.0, room temperature. • 3. Cathepsin K: • 3 nM cathepsin K—activated from recombinant human procathepsin K from E. coli (Calbiochem #342001), 10 μM Z-Gly-Pro-Arg-AMC (Biomol #P-142) as substrate in 50 mM MES, 2 mM EDTA, 0.05% Brij 35, 2.5 mM L-cysteine, pH 6.0, room temperature. • 4. Cathepsin L: • 1 nM cathepsin L—isolated from human liver (Calbiochem #219402), 2 μM Z-Phe-Arg-AMC (Bachem #1-1160) as substrate in 50 mM MES, 2 mM EDTA, 0.05% Brij 35, 2.5 mM L-cysteine, pH 6.0, room temperature. • 5. Cathepsin S: • 0.5 nM recombinant human cathepsin S from E. coli (Calbiochem #219343), 20 μM Z-Val-Val-Arg-AMC (Bachem #1-1540) as substrate in 50 mM MES, 2 mM EDTA, 0.05% Brij 35, 2.5 mM L-cysteine, pH 6.0, room temperature. • The results of the in vitro determination are indicated in Table 1. The following abbreviations are used in Table 1: • The “Calpain activity” column, ++ stands for a calpain Ki (Ki(calpain)) of ≦40 nM and + means: 40 nM<Ki(Calpain)≦100 nM. • The “Sel. cat. B” column indicates the Ki(cathepsin B)/Ki(calpain) ratio. In this connection, ++ means a Ki(cathepsin B)/Ki(calpain) ratio of ≧30 and + means 10≦Ki(cathepsin B)/Ki(calpain)<30. • The “Sel. cat. K” column indicates the Ki(cathepsin K)/Ki(calpain) ratio. In this connection, ++ means a Ki(cathepsin K)/Ki(calpain) ratio of ≧30 and + means 10≦Ki(cathepsin K)/Ki(calpain)<30. • The “Sel. cat. L” column indicates the Ki(cathepsin L)/Ki(calpain) ratio. In this connection, ++ means a Ki(cathepsin L)/Ki(calpain) ratio of ≧50 and + means 30≦Ki(cathepsin L)/Ki(calpain)<50. • The “Sel. cat. S” column indicates the Ki(cathepsin S)/Ki(calpain) ratio. In this connection, ++ means a Ki(cathepsin S)/Ki(calpain) ratio of ≧100 and + means 50≦Ki(cathepsin S)/Ki(calpain)<100.

In a further test the target is T2, cathepsin K (Homo sapiens, UniProt P43235).
T2 construct: purchased Calbiochem 342001; host or cells: E. coli
T2 sequence (P43235 115-329): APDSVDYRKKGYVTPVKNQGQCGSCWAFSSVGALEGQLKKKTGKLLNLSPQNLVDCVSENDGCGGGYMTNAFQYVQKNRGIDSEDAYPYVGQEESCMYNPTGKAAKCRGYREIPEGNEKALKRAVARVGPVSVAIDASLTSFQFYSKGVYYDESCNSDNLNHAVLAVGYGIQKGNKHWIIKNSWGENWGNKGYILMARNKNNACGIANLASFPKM
As to the kind of experiment: Cathepsin K enzyme inhibition in vitro (kinetic fluorescence assay). The note with it: cathepsin K activated from recombinant human procathepsin K vs calpain I. As to the method:
as §1, §2

A further test deals with T3, cathepsin L (Homo sapiens, UniProt P07711).
T3 construct: cathepsin L—isolated from human liver (Calbiochem #219402); purchased Calbiochem 219402; host or cells: human liver (tissue-derived)
Kind of test: Cathepsin L enzyme inhibition in vitro (kinetic fluorescence assay). The note with it: cathepsin L isolated from human liver vs calpain I. Put shortly: (§3)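 Kinetic fluorescence (ex 390/em 460 nm) at room temperature in 50 mM MES, 2 mM EDTA, 0.05% Brij 35, 2.5 mM L-cysteine, pH 6.0. Cathepsin B (liver, 0.25 nM) with 100 μM Z-Phe-Arg-AMC; cathepsin L (liver, 1 nM) with 2 μM Z-Phe-Arg-AMC; recombinant E. coli cathepsin S (0.5 nM) with 20 μM Z-Val-Val-Arg-AMC. Ki via Cheng-Prusoff.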

The target in the next test is T4, cathepsin S (Homo sapiens, UniProt P25774).
T4 construct: purchased Calbiochem 219343; host or cells: E. coli
As to the kind of experiment: Cathepsin S enzyme inhibition in vitro (kinetic fluorescence assay). The note with it: recombinant human cathepsin S vs calpain I. Put shortly: as §3

T3 sequence (P07711 114-333): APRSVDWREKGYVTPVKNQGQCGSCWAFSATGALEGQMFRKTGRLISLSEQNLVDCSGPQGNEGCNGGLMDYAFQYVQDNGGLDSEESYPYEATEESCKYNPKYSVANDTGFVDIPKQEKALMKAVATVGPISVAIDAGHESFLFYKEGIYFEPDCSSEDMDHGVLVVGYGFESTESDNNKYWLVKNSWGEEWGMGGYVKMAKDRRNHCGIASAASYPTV
T4 sequence (P25774 115-331): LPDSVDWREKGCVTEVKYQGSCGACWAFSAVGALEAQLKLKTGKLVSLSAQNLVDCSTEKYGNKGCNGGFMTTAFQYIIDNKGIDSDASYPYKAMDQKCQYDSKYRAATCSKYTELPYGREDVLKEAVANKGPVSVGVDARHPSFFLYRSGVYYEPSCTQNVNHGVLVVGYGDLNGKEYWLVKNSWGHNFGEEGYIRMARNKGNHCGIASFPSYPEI

For the compound `NC(=O)C(=O)C(Cc1ccccc1)NC(=O)c1cc(Cl)cnc1-n1ccc(-c2ccccc2)n1` (stereo not shown) [Example 27, N-(3-Amino-1-benzyl-2,3-dioxopropyl)-5-chloro-2-(3-phenyl-1H-pyrazol-1-yl)nicotinamide], at cathepsin B, the “Sel cat. B: Ki(cathepsin B)/Ki(calpain) ratio” value is listed as “++ (++ means a Ki(cathepsin B)/Ki(calpain) ratio of ≧30)”. Also, the “Sel cat. K: Ki(cathepsin K)/Ki(calpain) ratio” value on cathepsin K is listed as “+ (+ means 10≦Ki(cathepsin K)/Ki(calpain)<30)”. For the same compound, the “Sel cat. L: Ki(cathepsin L)/Ki(calpain) ratio” value on cathepsin L is “+ (+ means 30≦Ki(cathepsin L)/Ki(calpain)<50)”.
For the compound `Cl.NC(=O)C(=O)C(Cc1ccccc1)NC(=O)c1cccnc1-n1ccc(-c2ccc(N3CCOCC3)cc2)n1` (stereo not shown) [Example 29, N-(3-Amino-1-benzyl-2,3-dioxopropyl)-2-[3-(4-morpholin-4-ylphenyl)-1H-pyrazol-1-yl]nicotinamide hydrochloride], the “Sel cat. K: Ki(cathepsin K)/Ki(calpain) ratio” value on cathepsin K was “+ (+ means 10≦Ki(cathepsin K)/Ki(calpain)<30)”. Also, on cathepsin L, the “Sel cat. L: Ki(cathepsin L)/Ki(calpain) ratio” value is given as “++ (++ means a Ki(cathepsin L)/Ki(calpain) ratio of ≧50)”. On cathepsin S, the “Sel cat. S: Ki(cathepsin S)/Ki(calpain) ratio” value was “++ (++ means a Ki(cathepsin S)/Ki(calpain) ratio of ≧100)”.
For `NC(=O)C(=O)C(Cc1ccccc1)NC(=O)c1cc(Cl)cnc1-n1ccc(-c2ccc(N3CCOCC3)cc2)n1` (stereo not shown) [Example 31, N-(3-Amino-1-benzyl-2,3-dioxopropyl)-5-chloro-2-[3-(4-morpholin-4-ylphenyl)-1H-pyrazol-1-yl]nicotinamide], the “Sel cat. B: Ki(cathepsin B)/Ki(calpain) ratio” value on cathepsin B is listed as “++ (++ means a Ki(cathepsin B)/Ki(calpain) ratio of ≧30)”. Also, at cathepsin K, the “Sel cat. K: Ki(cathepsin K)/Ki(calpain) ratio” value is “+ (+ means 10≦Ki(cathepsin K)/Ki(calpain)<30)”. The “Sel cat. L: Ki(cathepsin L)/Ki(calpain) ratio” value at cathepsin L is given as “+ (+ means 30≦Ki(cathepsin L)/Ki(calpain)<50)”.
For the compound `NC(=O)C(=O)C(CC1CCCCC1)NC(=O)c1cccnc1-n1ccc(-c2ccccc2)n1` (stereo not shown) [Example 66, N-[3-Amino-1-(cyclohexylmethyl)-2,3-dioxopropyl]-2-(3-phenyl-1H-pyrazol-1-yl)nicotinamide], the “Sel cat. K: Ki(cathepsin K)/Ki(calpain) ratio” value at cathepsin K was “+ (+ means 10≦Ki(cathepsin K)/Ki(calpain)<30)”. Besides, the “Sel cat. L: Ki(cathepsin L)/Ki(calpain) ratio” value on cathepsin L is “+ (+ means 30≦Ki(cathepsin L)/Ki(calpain)<50)”. Further, the “Sel cat. S: Ki(cathepsin S)/Ki(calpain) ratio” value at cathepsin S was “++ (++ means a Ki(cathepsin S)/Ki(calpain) ratio of ≧100)”.
Regarding `CN1CCN(c2ccc(-c3ccn(-c4ncccc4C(=O)NC(Cc4ccccc4)C(=O)C(N)=O)n3)cc2)CC1` (stereo not shown) [Example 68, N-(3-Amino-1-benzyl-2,3-dioxopropyl)-2-{3-[4-(4-methylpiperazin-1-yl)phenyl]-1H-pyrazol-1-yl}nicotinamide], the “Sel cat. K: Ki(cathepsin K)/Ki(calpain) ratio” value on cathepsin K is listed as “+ (+ means 10≦Ki(cathepsin K)/Ki(calpain)<30)”. The “Sel cat. S: Ki(cathepsin S)/Ki(calpain) ratio” value at cathepsin S is reported as “++ (++ means a Ki(cathepsin S)/Ki(calpain) ratio of ≧100)”.
`NC(=O)C(=O)C(Cc1ccccc1)NC(=O)c1cccnc1-n1ccc(-c2cccc(N3CCCC3)c2)n1` (stereo not shown) [Example 74, N-(3-Amino-1-benzyl-2,3-dioxopropyl)-2-[3-(3-pyrrolidin-1-ylphenyl)-1H-pyrazol-1-yl]nicotinamide]: at cathepsin B, the “Sel cat. B: Ki(cathepsin B)/Ki(calpain) ratio” value is listed as “++ (++ means a Ki(cathepsin B)/Ki(calpain) ratio of ≧30)”. The “Sel cat. K: Ki(cathepsin K)/Ki(calpain) ratio” value at cathepsin K is reported as “++ (++ means a Ki(cathepsin K)/Ki(calpain) ratio of ≧30)”. The “Sel cat. S: Ki(cathepsin S)/Ki(calpain) ratio” value at cathepsin S was “++ (++ means a Ki(cathepsin S)/Ki(calpain) ratio of ≧100)”.
Consider `NC(=O)C(=O)C(Cc1ccccc1)NC(=O)c1cccnc1-n1ccc(-c2ccc3c(c2)CCO3)n1` (stereo not shown) [Example 75, N-(3-Amino-1-benzyl-2,3-dioxopropyl)-2-[3-(2,3-dihydrobenzo[b]furan-5-yl)-1H-pyrazol-1-yl]nicotinamide], for which the “Sel cat. K: Ki(cathepsin K)/Ki(calpain) ratio” value on cathepsin K is recorded as “+ (+ means 10≦Ki(cathepsin K)/Ki(calpain)<30)”. Also, on cathepsin L, the “Sel cat. L: Ki(cathepsin L)/Ki(calpain) ratio” value is listed as “++ (++ means a Ki(cathepsin L)/Ki(calpain) ratio of ≧50)”. In addition, on cathepsin S, the “Sel cat. S: Ki(cathepsin S)/Ki(calpain) ratio” value was “++ (++ means a Ki(cathepsin S)/Ki(calpain) ratio of ≧100)”.
With `N#Cc1cnc(-n2ccc(-c3ccccc3)n2)c(C(=O)NC(Cc2ccccc2)C(=O)C(N)=O)c1` (stereo not shown) [Example 82, N-(3-Amino-1-benzyl-2,3-dioxopropyl)-5-cyano-2-(3-phenyl-1H-pyrazol-1-yl)nicotinamide], the “Sel cat. B: Ki(cathepsin B)/Ki(calpain) ratio” value on cathepsin B is on record as “++ (++ means a Ki(cathepsin B)/Ki(calpain) ratio of ≧30)”. For the same compound, the “Sel cat. K: Ki(cathepsin K)/Ki(calpain) ratio” value at cathepsin K is “++ (++ means a Ki(cathepsin K)/Ki(calpain) ratio of ≧30)”. On cathepsin L, the “Sel cat. L: Ki(cathepsin L)/Ki(calpain) ratio” value is “++ (++ means a Ki(cathepsin L)/Ki(calpain) ratio of ≧50)”.
Regarding `N#Cc1cnc(-n2ccc(-c3ccccc3F)n2)c(C(=O)NC(Cc2ccccc2)C(=O)C(N)=O)c1` (stereo not shown) [Example 188, N-[3-Amino-2,3-dioxo-1-(phenylmethyl)propyl]-5-cyano-2-[3-(2-fluorophenyl)-1H-pyrazol-1-yl]pyridine-3-carboxamide], the “Sel cat. K: Ki(cathepsin K)/Ki(calpain) ratio” value on cathepsin K is listed as “++ (++ means a Ki(cathepsin K)/Ki(calpain) ratio of ≧30)”. Also, the “Sel cat. L: Ki(cathepsin L)/Ki(calpain) ratio” value on cathepsin L is reported as “++ (++ means a Ki(cathepsin L)/Ki(calpain) ratio of ≧50)”.
Regarding `NC(=O)C(=O)C(Cc1ccccc1)NC(=O)c1cccnc1-n1ccc(C2CCCCC2)n1` (stereo not shown) [Example 192, N-[3-Amino-2,3-dioxo-1-(phenylmethyl)propyl]-2-(3-cyclohexyl-1H-pyrazol-1-yl)pyridine-3-carboxamide], at cathepsin K, the “Sel cat. K: Ki(cathepsin K)/Ki(calpain) ratio” value was “+ (+ means 10≦Ki(cathepsin K)/Ki(calpain)<30)”. The “Sel cat. L: Ki(cathepsin L)/Ki(calpain) ratio” value on cathepsin L is given as “++ (++ means a Ki(cathepsin L)/Ki(calpain) ratio of ≧50)”. For the same compound, on cathepsin S, the “Sel cat. S: Ki(cathepsin S)/Ki(calpain) ratio” value is “++ (++ means a Ki(cathepsin S)/Ki(calpain) ratio of ≧100)”.
